ChEMBL document CHEMBL4706623, “GPR52 Antagonist Reduces Huntingtin Levels and Ameliorates Huntington's Disease-Related Phenotypes” (J Med Chem, 2021)
Calls of active or inactive are those of the source. The rule behind the calls is not given here.

Assays:
[1] = Neurotoxicity in wild type mouse assessed as effect on motor deficiency by measuring crossing time at 5 mg/kg, iv QD for 4 weeks by balance beam test; assay type: toxicity, organism-based; conditions: in vivo, 672 h
[2] = target: G-protein coupled receptor 52 (Mus musculus) (UniProt P0C5J4); test: In vivo antagonist activity at GPR52 in wild type mouse model assessed as reduction in mHTT aggregate levels in striatum in presence of 4C9 antibody labelled with terbium at 5 mg/kg, iv QD for 4 weeks by TR-FRET analysis; assay type: functional, organism-based
Chain of G-protein coupled receptor 52 (Mus musculus) (P0C5J4 whole entry): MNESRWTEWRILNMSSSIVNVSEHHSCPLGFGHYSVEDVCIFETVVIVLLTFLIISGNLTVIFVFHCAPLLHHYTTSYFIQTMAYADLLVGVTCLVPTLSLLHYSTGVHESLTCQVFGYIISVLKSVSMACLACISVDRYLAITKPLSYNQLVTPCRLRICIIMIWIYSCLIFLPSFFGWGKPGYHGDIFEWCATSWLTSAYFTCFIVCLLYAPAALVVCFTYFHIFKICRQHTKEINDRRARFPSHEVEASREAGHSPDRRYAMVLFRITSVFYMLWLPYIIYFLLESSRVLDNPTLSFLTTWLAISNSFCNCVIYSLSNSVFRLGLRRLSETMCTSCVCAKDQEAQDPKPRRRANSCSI

[3] = target: G-protein coupled receptor 52 (Mus musculus) (UniProt P0C5J4); test: In vivo antagonist activity at GPR52 in HdhQ140 knock-in mouse model assessed as reduction in soluble mHTT levels in cortex at 5 mg/kg, iv QD for 4 weeks by TR-FRET analysis; assay type: functional, organism-based
[4] = Cytotoxicity against mouse STHdhQ7/111 cells assessed as cell viability at < 10 uM incubated for 48 hrs by cell titer glo luminescence based assay; conditions: sthdhq7/111, 48 h
[5] = tested on: Neuron; test: Neuroprotective activity in neurons from HdhQ7/Q140 mouse assessed as rescue from mHTT-induced neuronal loss at 3 uM incubated for 48 hrs maintained in absence of growth factor N2 and B27 under starvation condition by immunostaining based analysis; assay type: functional, tissue-based
[6] = target: Glucagon-like peptide 1 receptor (Homo sapiens) (UniProt P43220); test: Antagonist activity at GLP-1R (unknown origin) expressed in HEK293 cells assessed as inhibition of GLP1-induced cAMP accumulation; assay type: functional, cell-based
Chain of Glucagon-like peptide 1 receptor (Homo sapiens) (P43220 whole entry): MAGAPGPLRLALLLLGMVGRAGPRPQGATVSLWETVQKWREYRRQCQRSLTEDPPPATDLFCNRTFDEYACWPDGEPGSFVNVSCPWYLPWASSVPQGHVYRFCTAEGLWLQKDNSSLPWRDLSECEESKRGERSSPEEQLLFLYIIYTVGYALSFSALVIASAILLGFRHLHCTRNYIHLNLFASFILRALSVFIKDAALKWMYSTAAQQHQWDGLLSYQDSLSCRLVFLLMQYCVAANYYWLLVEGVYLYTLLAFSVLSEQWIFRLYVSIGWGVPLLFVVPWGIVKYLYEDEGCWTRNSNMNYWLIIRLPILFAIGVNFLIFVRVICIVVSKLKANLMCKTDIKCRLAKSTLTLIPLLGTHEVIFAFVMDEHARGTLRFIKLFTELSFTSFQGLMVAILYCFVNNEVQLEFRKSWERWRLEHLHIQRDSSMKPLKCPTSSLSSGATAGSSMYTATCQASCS

[7] = target: G-protein coupled receptor 52 (Mus musculus) (UniProt P0C5J4); test: In vivo antagonist activity at GPR52 in HdhQ140 knock-in mouse model assessed as reduction in soluble mHTT levels in striatum at 5 mg/kg, iv QD for 4 weeks by TR-FRET analysis; assay type: functional, organism-based
[8] = target: G-protein coupled receptor 52 (Mus musculus) (UniProt P0C5J4); test: Antagonist activity at GPR52 in mouse STHdhQ7/111 cells assessed as decrease in mHTT levels at 1 to 10 uM incubated for 48 hrs in presence of 2B7-terbium and 2166-D2 antibodies by western blot analysis; assay type: cell-based; conditions: filed as antagonist, dose 1-10 µM
[9] = target: G-protein coupled receptor 52 (Mus musculus) (UniProt P0C5J4); test: Antagonist activity at GPR52 in mouse STHdhQ7/111 cells assessed as decrease in mHTT levels incubated for 48 hrs in presence of 2B7-terbium and 2166-D2 antibodies by TR-FRET; assay type: cell-based; conditions: filed as antagonist, dose 0.3-10 µM
[10] = tested on: Mus musculus; test: Neuroprotective activity in HdhQ140 mouse model assessed as rescue of motor deficiency by measuring crossing time at 5 mg/kg, iv QD for 4 weeks by balance beam test; assay type: functional, organism-based
[11] = target: Beta-2 adrenergic receptor (Homo sapiens) (UniProt P07550); test: Antagonist activity at beta2 adrenergic receptor (unknown origin) expressed in HEK293 cells assessed as inhibition of isoproterenol-induced cAMP accumulation; assay type: functional, cell-based
Chain of Beta-2 adrenergic receptor (Homo sapiens) (P07550 whole entry, looked up): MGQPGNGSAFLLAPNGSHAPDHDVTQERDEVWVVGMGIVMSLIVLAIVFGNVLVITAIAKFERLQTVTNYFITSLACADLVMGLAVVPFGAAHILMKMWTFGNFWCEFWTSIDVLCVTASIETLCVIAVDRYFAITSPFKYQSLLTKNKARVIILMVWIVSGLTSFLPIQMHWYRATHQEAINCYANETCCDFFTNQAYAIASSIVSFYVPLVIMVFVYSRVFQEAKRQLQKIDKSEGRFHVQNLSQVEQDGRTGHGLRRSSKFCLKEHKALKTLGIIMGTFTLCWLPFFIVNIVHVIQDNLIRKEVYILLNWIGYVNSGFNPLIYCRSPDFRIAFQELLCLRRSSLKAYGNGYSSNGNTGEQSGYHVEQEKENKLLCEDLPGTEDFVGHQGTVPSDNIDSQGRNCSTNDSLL

[12] = tested on: Mus musculus; test: Neuroprotective activity in HdhQ140 mouse model assessed as latency to fall at 5 mg/kg, iv QD for 4 weeks by rotarod test; assay type: functional, organism-based
[13] = target: G-protein coupled receptor 52 (Mus musculus) (UniProt P0C5J4); test: Antagonist activity at GPR52 in neurons from HdhQ7/Q140 mouse assessed as decrease in wild type HTT levels at 0.1 to 3 uM incubated for 48 hrs in presence of 2B7-terbium and 2166-D2 antibodies by TR-FRET analysis; assay type: tissue-based; conditions: Neuron, filed as antagonist, dose 0.1-3 µM
[14] = tested on: Mus musculus; test: Neuroprotective activity in HdhQ140 knock-in mouse model assessed as rescue of mHTT-induced neuronal survival loss at 5 mg/kg, iv QD for 4 weeks by […] based immunostaining based analysis; assay type: functional, organism-based
[15] = target: G-protein coupled receptor 52 (Mus musculus) (UniProt P0C5J4); test: In vivo antagonist activity at GPR52 in wild type mouse model assessed as reduction in mHTT aggregate levels in striatum in presence of 4C9 antibody labelled with D2 fluorophore at 5 mg/kg, iv QD for 4 weeks by TR-FRET analysis; assay type: functional, organism-based
[16] = target: G-protein coupled receptor 52 (Mus musculus) (UniProt P0C5J4); test: In vivo antagonist activity at GPR52 in wild type mouse model assessed as reduction in wild type HTT levels at 0.5 mM, icv QD for 3 weeks by TR-FRET analysis; assay type: functional
[17] = target: G-protein coupled receptor 52 (Mus musculus) (UniProt P0C5J4); test: In vivo antagonist activity at GPR52 in HdhQ140 knock-in mouse model assessed as reduction in mHTT aggregate levels in striatum at 0.5 mM, icv QD for 3 weeks by S380 antibody based immunostaining based analysis; assay type: functional
[18] = tested on: Neuron; test: Neuroprotective activity in neurons from HdhQ7/Q140 mouse assessed as rescue from mHTT-induced neuronal loss by measuring reduction in caspase 3 activity at 3 uM incubated for 48 hrs maintained in absence of growth factor N2 and B27 under starvation condition by green fluorescent dye based assay; assay type: functional, tissue-based
[19] = target: D(2) dopamine receptor (Homo sapiens) (UniProt P14416); test: Antagonist activity at dopamine D2 receptor (unknown origin) expressed in HEK293 cells assessed as inhibition of dopamine-induced cAMP accumulation; assay type: functional, cell-based
Chain of D(2) dopamine receptor (Homo sapiens) (P14416 whole entry): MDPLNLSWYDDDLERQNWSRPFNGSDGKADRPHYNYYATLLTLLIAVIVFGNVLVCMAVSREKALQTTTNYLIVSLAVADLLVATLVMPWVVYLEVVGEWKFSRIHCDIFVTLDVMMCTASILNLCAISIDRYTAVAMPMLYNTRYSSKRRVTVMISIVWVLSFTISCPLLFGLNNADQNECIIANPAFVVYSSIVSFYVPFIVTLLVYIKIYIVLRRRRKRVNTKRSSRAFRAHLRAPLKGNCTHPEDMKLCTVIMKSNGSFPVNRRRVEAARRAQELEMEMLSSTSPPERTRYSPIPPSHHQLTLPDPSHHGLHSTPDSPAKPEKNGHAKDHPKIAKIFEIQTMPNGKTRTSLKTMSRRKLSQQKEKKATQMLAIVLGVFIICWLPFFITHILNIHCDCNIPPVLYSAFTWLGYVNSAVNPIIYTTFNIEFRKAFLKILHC

[20] = target: G-protein coupled receptor 52 (Mus musculus) (UniProt P0C5J4); test: In vivo antagonist activity at GPR52 in HdhQ140 knock-in mouse model assessed as reduction in mHTT aggregate levels in cortex in presence of 4C9 antibody labelled with terbium at 5 mg/kg, iv QD for 4 weeks by TR-FRET analysis; assay type: functional, organism-based
[21] = Drug uptake in wild type mouse brain at 5 mg/kg, iv measured 0.5 to 6 hrs; assay type: ADME, organism-based; conditions: in vivo, time 0.5-6 hrs, read-out: Drug uptake

For `O=C(/C=C/CCc1ccccc1)c1ccco1`, the Activity [1] was “Non-Toxic”, the Activity [2] was “inactive” and the Activity [3] was “inactive”. The Activity [4] was “Non-Toxic”, the Activity [5] was “Active” and the Activity [6] was “inactive”. The Activity [7] was “Active”, the Activity [8] was “Active” and the Activity [9] was “Dose-dependent effect”. The Activity [10] was “Active”, the Activity [11] was “inactive” and the Activity [12] was “Active”. For the same compound, the Activity [13] was “Active”, the Activity [14] was “Active” and the Activity [15] was “inactive”. The Activity [16] was “inactive”, the Activity [17] was “Active” and the Activity [18] was “Active”. The Activity [19] was “inactive”, the Activity [20] was “inactive” and the concentration [21] was 20 nM.
